What was measured:
Format in all cases: physicochemical
[1] = Excipient compatibility study, related substances (unknown RRT)
Procedure: An initial excipient compatibility study was performed.
In the compatibility study, all the samples were evaluated for two (2) primary properties: appearance and related substances.
(close) for 4W with respect to their related substance profile.

[2] = Log D (pH 7.4) of the API
Procedure: The hydrochloride salt of the compound of formula (I) was formulated into three (3) oral dose strengths (5, 25, and 125 mg dose [based on free base]). The physicochemical properties of the compound of formula (I), the active pharmaceutical ingredient (API), are summarized in Table 1.

[3] = Solubility of the API in media
Procedure: The solubility of the API was tested. In all media, solubility of the compound is good, namely the maximum tested dose of 125 mg was found soluble in 250 mL of media. […] This characterization may not be accurate for larger doses. Reference is made to Table 2.

[4] = 40° C./75% RH, open glass vial, 4 week

COc1cc(Nc2nccc(Nc3cccnc3-c3ccccn3)n2)ccc1N1CCN(C)CC1.Cl [API, N2-[3-methoxy-4-(4-methylpiperazin-1yl)phenyl]-N4-[2-(pyridin-2-yl)pyridin 3-yl] pyrimidine-2,4-diamine hydrochloride]
Total (related substances) [1, 4]: 0.84% | Unknown RRT 0.162 [1, 4]: 0.11% | Unknown RRT 0.866 [1, 4]: BQL | Unknown RRT 0.989 [1, 4]: BQL | Unknown RRT 1.046 [1, 4]: BQL | Unknown RRT 1.07 [1, 4]: 0.07% | Unknown RRT 1.08 [1, 4]: 0.05% | Unknown RRT 1.341 [1, 4]: 0.2% | Unknown RRT 1.38 [1, 4]: 0.1% | Unknown RRT 1.549 [1, 4]: 0.19% | Unknown RRT 1.633 [1, 4]: 0.12% | Total (related substances) ([1]; Initial): 0.93% | Unknown RRT 0.162 ([1]; Initial): 0.12% | Unknown RRT 0.989 ([1]; Initial): BQL | Unknown RRT 1.046 ([1]; Initial): BQL | Unknown RRT 1.07 ([1]; Initial): 0.07% | Unknown RRT 1.08 ([1]; Initial): 0.06% | Unknown RRT 1.341 ([1]; Initial): 0.27% | Unknown RRT 1.38 ([1]; Initial): 0.08% | Unknown RRT 1.549 ([1]; Initial): 0.21% | Unknown RRT 1.633 ([1]; Initial): 0.12% | logD [2]: 2.66 | Maximum dose mg solubility in 250 ml ([3]; 0.1N HCl): 256 mg | solubility ([3]; 0.1N HCl, pH 1.005, simulated gastric fluid): 1030 µg/mL | Maximum dose mg solubility in 250 ml ([3]; Water): 252 mg | Solubility characterization with reference to BCS classification ([3]; maximum tested dose of 125 mg in 250 mL of media): highly soluble | Maximum dose mg solubility in 250 ml ([3]; pH 4.5 Acetate buffer): 253 mg | solubility ([3]; pH 4.5 acetate buffer, pH 4.508, aqueous buffer): 1010 µg/mL | Maximum dose mg solubility in 250 ml ([3]; pH 6.8 Phosphate buffer): 245 mg | solubility ([3]; pH 6.8 phosphate buffer, pH 6.812, aqueous buffer): 980 µg/mL | solubility ([3]; water, pH 6.213, water): 1010 µg/mL
